Nine molecules from US7345070B2, “Peroxisome proliferator activated receptor agonists” (Eli Lilly and Company, priority 2000, dated 2008) can be followed below.

The test system of one assay is HuapoAI transgenic mice. The assay is described as follows: Evaluation of triglyceride and cholesterol level in HuapoAI transgenic mice. Particulars: human apoAI transgenic mice; for change in vivo at 30 mg/kg / inhibition in vivo at 30 mg/kg: Mus musculus, 168 h, 30 mg/kg oral gavage daily for 7 days; for change in vivo at 30 mg/kg: FPLC area under the curve, over mice receiving vehicle, read-out: % HDLc Increase; for inhibition in vivo at 30 mg/kg: serum 3 h after dosing, read-out: Reduction in Triglyceride Serum Level. It counts as in vivo. The procedure:
After an acclimation period of 2 weeks, animals were individually identified by ear notches, weighed, and assigned to groups based on body weight. Beginning the following morning, mice were dosed daily by oral gavage for 7 days using a 20 gauge, 1½″ curved disposable feeding needle (Popper & Sons). […] Prior to termination on day 7, mice were weighed and dosed. Three hours after dosing, animals were anesthetized by inhalation of isoflurane (2-4%; Abbott Laboratories, Chicago, Ill.) and blood obtained via cardiac puncture (0.7-1.0 ml). Whole blood was transferred to serum separator tubes (Vacutainer SST), chilled on ice, and permitted to clot. Serum was obtained after centrifugation at 4° C. and frozen until analysis for triglycerides, total cholesterol, compound levels, and serum lipoprotein profile by fast protein liquid chromatography (FPLC) coupled to an inline detection system. After sacrifice by cervical dislocation, the liver, heart and epididymal fat pads were excised and weighed.
The absorbance of the dye produced is linearly related to the analyte in the sample. The assays were further modified in our laboratory for use in a 96 well format. […] An additional aliquot of sample, pipetted to a third well and diluted in 200 μl water, provided a blank for each specimen. […] Sample absorbances were compared to a standard curve (100-800, 10-500, and 100-400 mg/dl for glucose, triglycerides and total cholesterol, respectively). […] All samples from an experiment were assayed at the same time to minimize inter-assay variability.
Serum lipoproteins were separated and cholesterol quantitated with an in-line detection system. Sample was applied to a Superose® 6 HR 10/30 size exclusion column (Amersham Pharmacia Biotech) and eluted with phosphate buffered saline-EDTA at 0.5 ml/min. […] The change in voltage corresponding to change in cholesterol concentration was plotted vs time and the area under the curve corresponding to the elution of VLDL, LDL and HDL was calculated using Perkin Elmer Turbochrome software.

The subject of a further assay is db/db mice. The assay is described as follows: Evaluation of glucose levels in db/db mice. Particulars: Mus musculus, 168 h, 30 mg/kg oral gavage daily for 7 days, 100% = glucose not different from lean values, read-out: Glucose Normalisation. In kind it is in vivo. The procedure:
Five week old male diabetic (db/db) mice [C57BlKs/j-m+/+ Lepr(db), Jackson Laboratory, Bar Harbor, Me.] or lean littermates (db+) were housed 6 per cage (10″×20″×8″ with aspen chip bedding) with food (Purina 5015) and water available at all times. After an acclimation period of 2 weeks, animals were individually identified by ear notches, weighed, and bled via the tail vein for determination of initial glucose levels. Blood was collected (100 μl) from unfasted animals by wrapping each mouse in a towel, cutting the tip of the tail with a scalpel, and milking blood from the tail into a heparinized capillary tube (Fisher) balanced on the edge of the bench. Sample was discharged into a heparinized microtainer with gel separator (VWR) and retained on ice. Plasma was obtained after centrifugation at 4° C. and glucose measured immediately. Remaining plasma was frozen until the completion of the experiment, when glucose and triglycerides were assayed in all samples. Animals were grouped based on initial glucose levels and body weights. Beginning the following morning, mice were dosed daily by oral gavage for 7 days using a 20 gauge, 1½″ curved disposable feeding needle. Treatments were test compounds (30 mg/kg), a positive control agent (30 mg/kg) or vehicle [1% carboxymethylcellulose (w/v)/0.25% Tween80 (w/v); 0.3 ml/mouse]. On day 7, mice were weighed and bled (tail vein) 3 hours after dosing. Twenty-four hours after the 7th dose (i.e., day 8), animals were bled again (tail vein). Samples obtained from conscious animals on days 0, 7 and 8 were assayed for glucose. After the 24 hour bleed, animals were weighed and dosed for the final time. Three hours after dosing on day 8, animals were anesthetized by inhalation of isoflurane and blood obtained via cardiac puncture (0.5-0.7 ml). Whole blood was transferred to serum separator tubes, chilled on ice and permitted to clot. Serum was obtained after centrifugation at 4° C. and frozen until analysis for compound levels. After sacrifice by cervical dislocation, the liver, heart and epididymal fat pads were excised and weighed.
The animals dosed with vehicle had average triglycerides values of 170-230 mg/dl, which were reduced by the positive PPARγ control (70-120 mg/dl with a mean reduction of 50%). Male db/db mice were hyperglycemic (average glucose of 680-730 mg/dl on the 7th day of treatment), while lean animals had average glucose levels between 190-230 mg/dl.
Glucose was measured […] using commercially purchased reagents (Sigma #315-500). According to the manufacturers, the procedures were modified from published work (McGowan, M. W., Artiss, J. D., Strandbergh, D. R. & Zak, B. Clin Chem, 20:470-5 (1974) and Keston, A. Specific colorimetric enzymatic analytical reagents for glucose. Abstract of papers 129th Meeting ACS, 31C (1956).); and depend on the release of a mole of hydrogen peroxide for each mole of analyte, coupled with a color reaction first described by Trinder (Trinder, P. Determination of glucose in blood using glucose oxidase with an alternative oxygen acceptor. Ann Clin Biochem, 6:24 (1969)). The absorbance of the dye produced is linearly related to the analyte in the sample. The assays were further modified in our laboratory for use in a 96 well format. Standards (Sigma #339-11, Sigma #16-11, and Sigma #CC0534 for glucose, triglycerides and total cholesterol, respectively), quality control plasma (Sigma # A2034), and samples (2 or 5 μl/well) were measured in duplicate using 200 μl of reagent. An additional aliquot of sample, pipetted to a third well and diluted in 200 μl water, provided a blank for each specimen. Plates were incubated at room temperature (18, 15, and 10 minutes for glucose, triglycerides and total cholesterol, respectively) on a plate shaker (DPC Micormix 5) and absorbance read at 500 nm (glucose and total cholesterol) or 540 nm (triglycerides) on a plate reader (Wallac Victor 1420). […]

A further assay concerns huPPARα. The assay is described as follows: Cotransfection assay in CV-1 cells, huPPARα. It counts as cell-based, human. To be noted: GAL4 chimeric system, relative to PPARα agonist reference molecule. Here is the method: DNA-dependent binding (ABCD binding) was carried out using SPA technology with PPAR receptors. Tritium-labeled PPARα and PPARγ agonists were used as radioligands for generating displacement curves and IC50 values with compounds of the invention. Cotransfection assays were carried out in CV-1 cells. The reporter plasmid contained an acylCoA oxidase (AOX) PPRE and TK promoter upstream of the luciferase reporter cDNA. Appropriate PPARs and RXRα were constitutively expressed using plasmids containing the CMV promoter. […] In order to eliminate such interference, a GAL4 chimeric system was used in which the DNA binding domain of the transfected PPAR was replaced by that of GAL4, and the GAL4 response element was utilized in place of the AOX PPRE. Cotransfection efficacy was determined relative to PPARα agonist and PPARγ agonist reference molecules. Efficacies were determined by computer fit to a concentration-response curve, or in some cases at a single high concentration of agonist (10 μM). For binding or cotransfection studies with receptors other than PPARs, similar assays were carried out using appropriate ligands, receptors, reporter constructs, etc., for that particular receptor.
These studies were carried out to evaluate the ability of compounds of the invention to bind to and/or activate various nuclear transcription factors, particularly huPPARα (“hu” indicates “human”) and huPPARγ. These studies provide in vitro data concerning efficacy and selectivity of compounds of the invention. Furthermore, binding and cotransfection data for compounds of the invention were compared with corresponding data for marketed compounds that act on either huPPARα or huPPARγ.

Where [1] appears, read: 100 mg/kg oral daily 7 days, vs vehicle.

As to `Cc1oc(-c2cccs2)nc1CCOc1ccc(C[C@@](C)(Oc2ccccc2)C(=O)O)cc1` [Example 5, (R)-2-Methyl-3-{4-[2-(5-methyl-2-thiophen-2-yl-oxazol-4-yl)-ethoxy]-phenyl}-2-phenoxypropionic acid], in the assay with HuapoAI transgenic mice, the change in vivo at 30 mg/kg is 30%. In addition, the inhibition in vivo at 30 mg/kg amounted to 19.7% in the assay on HuapoAI transgenic mice and 80% in the assay with db/db mice.

For the molecule `Cc1oc(-c2cccs2)nc1CCOc1ccc(C[C@](C)(Oc2ccccc2)C(=O)O)cc1` [Example 6, (S)-2-Methyl-3-{4-[2-(5-methyl-2-thiophen-2-yl-oxazol-4-yl)-ethoxy]-phenyl}-2-phenoxypropionic acid], in the assay on HuapoAI transgenic mice, the change in vivo at 30 mg/kg was 85% and the inhibition in vivo at 30 mg/kg was determined as 38.5%. In addition, the inhibition in vivo at 30 mg/kg in the assay with db/db mice worked out at 86%.

As to `Cc1oc(-c2ccccc2)nc1CCOc1ccc(CC(C)(Oc2ccccc2)C(=O)O)cc1` (racemic) [Example 1, rac-3-{4-[2-(2-Phenyl-5-methyl-oxazol-4-yl)-ethoxy]-phenyl}-2-methyl-2-phenoxy-propionic acid], the change in vivo at 30 mg/kg in the assay on HuapoAI transgenic mice came to 83%. The inhibition in vivo at 30 mg/kg with HuapoAI transgenic mice turned out to be 41.3%; in the assay with db/db mice, 95%.

In the case of `Cc1oc(C2CCCCC2)nc1CCOc1ccc(CC(C)(Oc2ccccc2)C(=O)O)cc1` (stereo not drawn) [Example 7, 2-Methyl-3-(4-{2-[5-methyl-2-cyclohexyl-oxazol-4-yl]-ethoxy}-phenyl)-2-phenoxypropionic acid], in the assay on HuapoAI transgenic mice, the change in vivo at 30 mg/kg was found to be 39% and the inhibition in vivo at 30 mg/kg came to 42.1%. Moreover, in the assay on db/db mice, the inhibition in vivo at 30 mg/kg is 86%.

As to `Cc1oc(-c2ccccc2)nc1CCOc1ccc(C[C@](C)(Oc2ccccc2)C(=O)O)cc1` [Example 3, (S)-3-{4-[2-(2-Phenyl-5-methyl-oxazol-4-yl)-ethoxy]-phenyl}-2-methyl-2-phenoxy-propionic acid], the change in vivo at 30 mg/kg in the assay with HuapoAI transgenic mice was 67%. Besides, the inhibition in vivo at 30 mg/kg in the assay with db/db mice stood at 85%.

Consider `Cc1c(C)c2c(c(C)c1O)CCC(C)(COc1ccc(CC3SC(=O)NC3=O)cc1)O2` (stereo not drawn) [Troglitazone, reference compound], for which the “huPPARα CTF Efficacy” value in the assay on huPPARα is reported as 0%.

As to `Cc1oc(-c2cccs2)nc1CCOc1ccc(CC(C)(Oc2ccccc2)C(=O)O)cc1` (racemic) [Example 4, rac-2-Methyl-3-{4-[2-(5-methyl-2-thiophen-2-yl-oxazol-4-yl)-ethoxy]-phenyl}-2-phenoxypropionic acid], in the assay on HuapoAI transgenic mice, the change in vivo at 30 mg/kg is 24% and the inhibition in vivo at 30 mg/kg is 58.3%. For the same molecule, the inhibition in vivo at 30 mg/kg in the assay with db/db mice was found to be 74%.

Consider `Cc1oc(-c2ccccc2)nc1CCOc1ccc(C[C@@](C)(Oc2ccccc2)C(=O)O)cc1` [Example 2, (R)-3-{4-[2-(2-Phenyl-5-methyl-oxazol-4-yl)-ethoxy]-phenyl}-2-methyl-2-phenoxy-propionic acid], for which the change in vivo at 30 mg/kg in the assay on HuapoAI transgenic mice worked out at 25%. Besides, the inhibition in vivo at 30 mg/kg is -12.9% with HuapoAI transgenic mice and 9% in the assay with db/db mice.

Take `CC(C)OC(=O)C(C)(C)Oc1ccc(C(=O)c2ccc(Cl)cc2)cc1` [fenofibrate, reference compound]: the HDLc peak area with HuapoAI transgenic mice (100 mg/kg oral daily 7 days, FPLC of pooled sera, vehicle 47-62 v-sec) is on record as 68-96 v-sec. Further, in the assay with HuapoAI transgenic mice (100 mg/kg oral daily 7 days, FPLC, vs vehicle), the “mean percent increase of HDLc” value is 48%. In the assay with HuapoAI transgenic mice (setting [1]), the “mean elevation of total serum cholesterol” value was determined as 41% and the “mean reduction of triglycerides” value came to 37%. The molecule also displayed an average triglycerides values with HuapoAI transgenic mice (100 mg/kg oral daily 7 days, vehicle 60-80 mg/dl) of 33 to 58 mg/dL. Besides, the “average total serum cholesterol values” in the assay on HuapoAI transgenic mice (100 mg/kg oral daily 7 days, vehicle 140-180 mg/dl) lay within 190 to 280 mg/dL.
